Measurements from patent US8158172B2, “Fermented food products containing probiotics strains, and method for preparing same” (Compagnie Gervais Danone, priority 2006, dated 2012).

Assays:
Type in all cases: cell-based
Bifidobacterium = experiment: Population of bifidobacteria during preservation at 10° C., cysteine incorporated before pasteurization (Example 5)
Method: This concentration was assessed on direct incorporation in the model and pasteurized composition (95° C., 30 minutes). The monitoring of the population of bifidobacteria in the product model during preservation at 10° C. is represented in FIG. 4.

[1] = test system: Bifidobacterium animalis ssp lactis (CNCM: I-2494); experiment: Growth of bifidobacteria in milk, quantity at the end of the fermentation (Example 1); conditions: milk model at 37° C.; vitamin C 0.5 g/l, cysteine 50 mg/l
Method: A ferment comprising Streptococcus thermophilus (CNCM: I-1630)+Lactobacillus delbreckii ssp. bulgaricus (CNCM: I-1632)+Lactobacillus delbrueckii ssp. bulgaricus (CNCM: I-1519)+Bifidobacterium animalis ssp lactis (CNCM: I-2494) is used. The growth of bifidobacteria in milk is measured in the presence of a solution of vitamin C (0.5 g/l) completely reducing the oxygen in the medium, and a solution of cysteine (50 mg/l). A heat treatment is carried out involving pasteurization for 30 minutes at 95° C. in a bubbling water bath. The cysteine is supplied by Sigma. The solution is prepared at 500 g/l, filtered on a 0.2 μm Nalgène filter unit. This solution is used injected sterilely into the pasteurized model for a final concentration of 50 mg/l. The vitamin C is supplied by Sigma. The solution is prepared at 100 g/l, filtered on a 0.2 μm Nalgène filter unit (cat. 156-4020, Nalge Europe Ltd, Belgium). This solution is used injected sterilely into the pasteurized model for a final concentration of 0.5 g/l. The seeding is 5.10^6 CFU/ml of Streptococcus thermophilus and 5.10^6 CFU/ml of Lactobacillus bulgaricus.

[2] = test system: ferment comprising Streptococcus thermophilus (CNCM: I-2272, I-2773, I-2130), Lactobacillus delbrueckii ssp. bulgaricus (CNCM: I-1519) and Bifidobacterium …; experiment: Acidification kinetics of milk with the ferment of Example 2 (Example 3); conditions: 15 mg/L cysteine versus control without cysteine
Source text: A ferment comprising Streptococcus thermophilus (CNCM: I-2272)+Streptococcus thermophilus (CNCM: I-2773)+Streptococcus thermophilus (CNCM: I-2130)+Lactobacillus delbrueckii ssp. bulgaricus (CNCM: I-1519)-+Bifidobacterium animalis ssp lactis (CNCM: I-2494) is used. The ferment described in Example 2 is used.

[3] = test system: ferment comprising Streptococcus thermophilus (CNCM: I-1630), Lactobacillus delbrueckii ssp. bulgaricus (CNCM: I-1632, I-1519) and Bifidobacterium animalis ssp …; experiment: Monitoring of the acidification of the milk product model by the ferment of Example 1; conditions: vitamin C 0.5 g/l, cysteine 50 mg/l; for acidification curve compared with control / vitamin C curve: FIG. 1; for Ta = latency time / Tmax = time at Vmax / TpH 4.8 = time to arrive at pH 4.8 / TpH 5 = time to arrive at pH 5 / TpH 5.5 = time to arrive at pH 5.5 / Vmax = maximum rate / pH 0 = pH at start of fermentation / pHm = pH at the maximum acidification rate: milk model at 37° C.
Method: A ferment comprising Streptococcus thermophilus (CNCM: I-1630)+Lactobacillus delbreckii ssp. bulgaricus (CNCM: I-1632)+Lactobacillus delbrueckii ssp. bulgaricus (CNCM: I-1519)+Bifidobacterium animalis ssp lactis (CNCM: I-2494) is used.
The growth of bifidobacteria in milk is measured in the presence of a solution of vitamin C (0.5 g/l) completely reducing the oxygen in the medium, and a solution of cysteine (50 mg/l).
Constitution of the product model:
Milex skimmed milk powder supplied by Arla food: 120 g
Water: quantity sufficient for 1 kg
A heat treatment is carried out involving pasteurization for 30 minutes at 95° C. in a bubbling water bath.
The cysteine is supplied by Sigma. The solution is prepared at 500 g/l, filtered on a 0.2 μm Nalgène filter unit. This solution is used injected sterilely into the pasteurized model for a final concentration of 50 mg/l.
The vitamin C is supplied by Sigma. The solution is prepared at 100 g/l, filtered on a 0.2 μm Nalgène filter unit (cat. 156-4020, Nalge Europe Ltd, Belgium). This solution is used injected sterilely into the pasteurized model for a final concentration of 0.5 g/l.
The seeding is 5.10^6 CFU/ml of Streptococcus thermophilus and 5.10^6 CFU/ml of Lactobacillus bulgaricus.
The monitoring of the acidification of the model at 37° C. is represented in Table 2 below as well as in FIG. 1.

[4] = test system: Bifidobacterium animalis ssp lactis (CNCM: I-2494); experiment: Population of bifidobacteria in milk models (stirred yogurts) during preservation at 10° C. (Example 2)
Method: A ferment comprising Streptococcus thermophilus (CNCM: I-2272)+Streptococcus thermophilus (CNCM: I-2773)+Streptococcus thermophilus (CNCM: I-2130)+Lactobacillus delbrueckii ssp. bulgaricus (CNCM: I-1519)-+Bifidobacterium animalis ssp lactis (CNCM: I-2494) is used. “Milk models” are constituted by standard stirred yogurts comprising the ferment described above. The use of 0.2 μm-filtered cysteine was assessed in the “milk models” in proportions comprised from 5 mg/l to 50 mg/l (preferably from 5 to 20 mg/l). For the bifidobacteria counting method, reference may be made to M. Grand et al., Quantitative analysis and molecular identification of bifidobacteria strains in probiotic milk products, Eur. Food Res. Technol. 217:90-92 (2003).

bifidobacteria = experiment: Populations of bifidobacteria in products with increasing doses of cysteine (Example 7)
Method: Different products were prepared with increasing doses of cysteine (see the table below). The control was the standard dairy product containing the ferment.

bifidobacteria (I-2494) = experiment: Development of the population of bifidobacteria in the model preserved at 4° C., filtered or autoclaved stimulant (Example 4); conditions: 50 mg/l; for effect of the supply on the population of bifidobacteria: filtered or autoclaved, relative to control; for population of bifidobacteria D 10: 10 days after placing in pots; for population of bifidobacteria D 10 / population of bifidobacteria D 24 / population of bifidobacteria D 0 / population of bifidobacteria D 29: preserved at 4° C.; for population of bifidobacteria D 24: 24 days after placing in pots; for population of bifidobacteria D 0: placing in pots (packaging); for population of bifidobacteria D 29: 29 days after placing in pots
Method: The impact of sterilization by filtration or thermization of the cysteine and methionine is assessed (final concentration used: 50 mg/l). The solutions are either filtered at 0.2 μm or autoclaved for 5 minutes at 121° C. then frozen in the form of beads in liquid nitrogen. Constitution of the model: Milex skimmed milk powder supplied by Arla food: 120 g […] Heat treatment: pasteurization for 30 minutes at 95° C. in a bubbling water bath Cysteine: supplier Sigma. The solution is prepared at 500 g/l, filtered on a 0.2 μm Nalgène filter unit or sterilized at 121° C. for 5 minutes by an autoclave controlled by temperature probe ([…] France S.A., reference KL 60/101). This solution is injected sterilely into the pasteurized model for a final concentration of 50 mg/l. […] The solution is prepared at 300 g/l; the filtration or sterilization treatment is identical to that carried out for the cysteine solution. This solution is injected sterilely into the pasteurized model for a final concentration of 50 mg/l. The seeding doses are referred to in Table 3 below. The seeding is 5.10^6 CFU/ml of Streptococcus thermophilus and 5.10^6 CFU/ml of Lactobacillus bulgaricus. The monitoring of the population of bifidobacteria in the model preserved at 4° C. as a function of the various conditions above is represented in FIG. 3 as well as in Table 4 below: The reference time D0 corresponds to placing in pots (packaging).

## N[C@@H](CS)C(=O)O [cysteine, L-cysteine]
Bifidobacterium; 12 mg/l cysteine incorporated before pasteurization (95° C., 30 minutes)
  population of Bifidobacterium after 44 days of preservation at 10° C.: above 1.4.10^8 CFU/ml
Bifidobacterium; 12 mg/l cysteine incorporated before pasteurization (95° C., 30 minutes), 10° C.
  population of Bifidobacterium at D1 (24 hours of storage): 2.4.10^8 CFU/ml
Bifidobacterium; filtered cysteine, not heat treated (comparison)
  population of Bifidobacterium on addition of 0.2 μm filtered cysteine to the model: 3.10^8 CFU/ml
[1]
  D 0 CFU/ml = quantity of bifidobacteria obtained at the end of the fermentation: 2.79 · 10^8 CFU/ml
[2]
  effect on the overall acidification kinetics of milk: absence of the effect
[3]
  acidification curve compared with control / vitamin C curve: differs from the acidification curve in the presence of vitamin C
  Ta = latency time: 90 min
  Tmax = time at Vmax: 3.47 h
  TpH 4.8 = time to arrive at pH 4.8: 417 minutes
  TpH 5 = time to arrive at pH 5: 354 minutes
  TpH 5.5 = time to arrive at pH 5.5: 248 minutes
  Vmax = maximum rate: −0.01046 pH units/minute
  pH 0 = pH at start of fermentation: 6.6
  pHm = pH at the maximum acidification rate: 5.82
[4]; 0.0015% i.e. 15 mg/l of filtered cysteine
  Bifidobacterium I-2494 population after 28 days of preservation at 10° C.: 2.8.10^8 CFU/ml
[4]; dose of 0.0015% cysteine
  Bifidobacterium population: > 2.10^8 CFU/ml
[4]; highest concentration of L cysteine (range 5 mg/l to 50 mg/l)
  population of bifidobacteria after preservation for up to 28 days at 10° C.: remains stable
[4]; highest concentration of L cysteine (range 5 mg/l to 50 mg/l), 0.2 μm-filtered
  population of bifidobacteria at D+24 h: 3.10^8 CFU/ml
[4]; lowest concentration of L cysteine (range 5 mg/l to 50 mg/l)
  population of bifidobacteria at D+24 h: 1.10^8 CFU/ml
bifidobacteria; Test 1, cysteine 0.008%
  Populations (CFU/mL) T0: 4.40E+06 CFU/mL
  Populations (CFU/mL) Tf 495 min: 1.70E+08 CFU/mL
bifidobacteria; Test 2, cysteine 0.005%
  Populations (CFU/mL) T0: 4.70E+06 CFU/mL
  Populations (CFU/mL) T pH 4.8: 1.90E+08 CFU/mL
  Populations (CFU/mL) Tf 495 min: 2.40E+08 CFU/mL
bifidobacteria; Test 3, cysteine 0.002%
  Populations (CFU/mL) T0: 3.30E+06 CFU/mL
  Populations (CFU/mL) T pH 4.8: 2.50E+08 CFU/mL
  Populations (CFU/mL) Tf 495 min: 3.10E+08 CFU/mL
bifidobacteria; Test 5, cysteine 0.001%
  Populations (CFU/mL) T0: 3.10E+06 CFU/mL
  Populations (CFU/mL) T pH 4.8: 1.50E+08 CFU/mL
  Populations (CFU/mL) Tf 495 min: 2.40E+08 CFU/mL
bifidobacteria; Test 6, cysteine 0.0005%
  Populations (CFU/mL) T0: 3.90E+06 CFU/mL
  Populations (CFU/mL) T pH 4.8: 1.10E+08 CFU/mL
  Populations (CFU/mL) Tf 495 min: 1.20E+08 CFU/mL
Bifidobacteria (I-2494)
  effect of the supply on the population of bifidobacteria: increased
Bifidobacteria (I-2494); listed as Filtered cysteine
  population of bifidobacteria D 10: 4.3 · 10^8 CFU/ml
  population of bifidobacteria D 24: 4.0 · 10^8 CFU/ml
  population of bifidobacteria D 0: 5.1.10^8 CFU/ml

## CSCCC(N)C(=O)O [methionine, L-methionine ((S)-2-amino-4-methylthio-butyric acid)]
Bifidobacteria (I-2494)
  effect of the supply on the population of bifidobacteria: increased
Bifidobacteria (I-2494); listed as Filtered methionine
  population of bifidobacteria D 10: 6.2 · 10^8 CFU/ml
  population of bifidobacteria D 24: 3.4 · 10^8 CFU/ml
  population of bifidobacteria D 29: 2.3 · 10^8 CFU/ml
  population of bifidobacteria D 0: 4.0.10^8 CFU/ml

## CSCCC(N)C(=O)O [Autoclaved methionine, L-methionine ((S)-2-amino-4-methylthio-butyric acid)]
Bifidobacteria (I-2494)
  population of bifidobacteria D 10: 3.5 · 10^8 CFU/ml
  population of bifidobacteria D 24: 3.5 · 10^8 CFU/ml
  population of bifidobacteria D 29: 2.8 · 10^8 CFU/ml
  population of bifidobacteria D 0: 3.4.10^8 CFU/ml

## O=C1O[C@H]([C@@H](O)CO)C(O)=C1O [Vitamin C, vitamin C, reference compound]
[1]
  D 0 CFU/ml = quantity of bifidobacteria obtained at the end of the fermentation: 1.02 · 10^8 CFU/ml
[3]
  acidification curve compared with control / vitamin C curve: virtually indistinguishable from the control acidification curve
  Ta = latency time: 86 min
  Tmax = time at Vmax: 3.07 h
  TpH 4.8 = time to arrive at pH 4.8: 479 minutes
  TpH 5 = time to arrive at pH 5: 391 minutes
  TpH 5.5 = time to arrive at pH 5.5: 260 minutes
  Vmax = maximum rate: −0.0079 pH units/minute
  pH 0 = pH at start of fermentation: 6.5
  pHm = pH at the maximum acidification rate: 5.96

## N[C@@H](CS)C(=O)O [Autoclaved cysteine, L-cysteine]
Bifidobacteria (I-2494)
  population of bifidobacteria D 10: 5.2.10^8 CFU/ml
  population of bifidobacteria D 24: 2.8.10^8 CFU/ml
  population of bifidobacteria D 29: 1.7.10^8 CFU/ml
  population of bifidobacteria D 0: 3.1 · 10^8 CFU/ml
